Test system: HEK293 cells
Test: Preliminary screening as mRNA vectors, EGFP mRNA transfection of HEK293 cells
Type: cell-based
Details: EGFP mRNA 50 ng per well, 96-well plates; percentage of GFP fluorescent cells relative to total number of cells (Hoechst)
Summary of the method: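 Each well of HEK293 cells received 50 ng of EGFP mRNA. Efficiency was expressed as percent GFP-expressing cells over Hoechst-defined total cell number.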

## CCCCCCCCCCCCCCCCSc1nc(NCCCCCCCC)nc(NCCCN2CCN(C)CC2)n1 [Compound D9S16N8]
  Absolute mRNA transfection efficiency in HEK293 cells: 71.3%

## CCCCCCCCCCCCCCCCNc1nc(NCCN(CC)CC)nc(SCCCCCCCCCCCCCCC)n1 [Compound D7S15N16]
  Absolute mRNA transfection efficiency in HEK293 cells: 0.5%

## CCCCCCCCCCCCCCCCSc1nc(NCCCCCCCCC)nc(NCCN2CCN(C)CC2)n1 [Compound D5S16N9]
  Absolute mRNA transfection efficiency in HEK293 cells: 68.1%

## CCCCCCCSc1nc(NCCN(C)C)nc(SCCCCCC)n1 [Compound D1S6S7]
  Absolute mRNA transfection efficiency in HEK293 cells: 1.0%

## CCCCCCCCNc1nc(NCCN2CCN(C)CC2)nc(SCCCCCCCC)n1 [Compound D5S8N8]
  Absolute mRNA transfection efficiency in HEK293 cells: 1.3%

## CCCCCCCSc1nc(NCC2CCN(C)CC2)nc(SCCCCCCC)n1 [Compound D10S7S7]
  Absolute mRNA transfection efficiency in HEK293 cells: 19.3%

## CCCCCCCCCCCCCCCCSc1nc(NCCCCCCCCCCCCC)nc(NCCCN2CCN(C)CC2)n1 [Compound D9S16N13]
  Absolute mRNA transfection efficiency in HEK293 cells: 1.4%

## CCCCCCCCCCCCSc1nc(NCC2CCN(C)CC2)nc(SCCCCCCCC)n1 [Compound D10S8S12]
  Absolute mRNA transfection efficiency in HEK293 cells: 67.9%

## CCCCCCCCCCSc1nc(NCCCCCCCC)nc(NCCN2CCOCC2)n1 [Compound D2S10N8]
  Absolute mRNA transfection efficiency in HEK293 cells: 0.5%

## CCCCCCCCCCCCNc1nc(NCCN2CCCCC2)nc(SCCCCCCCC)n1 [Compound D4S8N12]
  Absolute mRNA transfection efficiency in HEK293 cells: 3.5%

## CCCCCCCCCCCCCCCCNc1nc(NCCN2CCCC2)nc(SCCCCCCCC)n1 [Compound D3S8N16]
  Absolute mRNA transfection efficiency in HEK293 cells: 14.3%

## CCCCCCCCCSc1nc(NCCCN2CCOCC2)nc(SCCCCCC)n1 [Compound D8S6S9]
  Absolute mRNA transfection efficiency in HEK293 cells: 5.0%

## CCCCCCCCCSc1nc(NCCCN(C)C)nc(SCCCCCCCC)n1 [Compound D6S8S9]
  Absolute mRNA transfection efficiency in HEK293 cells: 59.9%

## CCCCCCCCCCCCCCSc1nc(NCCN(C)C)nc(SCCCCCCC)n1 [Compound D1S7S14]
  Absolute mRNA transfection efficiency in HEK293 cells: 3.1%

## CCCCCCCCCCCSc1nc(NCCN(CC)CC)nc(SCCCCCCC)n1 [Compound D7S7S11]
  Absolute mRNA transfection efficiency in HEK293 cells: 4.5%

## CCCCCCCCCCCCCCCSc1nc(NCCN2CCCCC2)nc(N(CCCCCCCCCCCC)CCCCCCCCCCCC)n1 [D4S15^2N12]
  Absolute mRNA transfection efficiency in HEK293 cells: 0.2%

## CCCCCCCCCSc1nc(NCCN(CC)CC)nc(SCCCCCCC)n1 [Compound D7S7S9]
  Absolute mRNA transfection efficiency in HEK293 cells: 13.5%

## CCCCCCCCCCCCCNc1nc(NCC2CCN(C)CC2)nc(SCCCCCCCCCCC)n1 [Compound D10S11N13]
  Absolute mRNA transfection efficiency in HEK293 cells: 10.4%

## CCCCCCCCCCCCCCCCNc1nc(NCCN2CCOCC2)nc(SCCCCCCCC)n1 [Compound D2S8N16]
  Absolute mRNA transfection efficiency in HEK293 cells: 3.4%

## CCCCCCCCCCCNc1nc(NCCCN2CCOCC2)nc(SCCCCCCCC)n1 [Compound D8S8N11]
  Absolute mRNA transfection efficiency in HEK293 cells: 7.9%

## CCCCCCCCCCCCCCCCSc1nc(NCC2CCN(C)CC2)nc(N(CCCCCCCCCCCC)CCCCCCCCCCCC)n1 [D10S16^2N12]
  Absolute mRNA transfection efficiency in HEK293 cells: 0.2%

## CCCCCCCCCCCSc1nc(NCCCCCCCCC)nc(NCCCN2CCN(C)CC2)n1 [Compound D9S11N9]
  Absolute mRNA transfection efficiency in HEK293 cells: 60.3%

## CCCCCCCCCCCCCCCCCCNc1nc(NCCCN2CCOCC2)nc(SCCCCCCCCCCCCCCCCCC)n1 [Compound D8S18N18]
  Absolute mRNA transfection efficiency in HEK293 cells: 0.0%

## CCCCCCCCCCCCSc1nc(NCCN(C)C)nc(SCCCCCCC)n1 [Compound D1S7S12]
  Absolute mRNA transfection efficiency in HEK293 cells: 3.1%

## CCCCCCCCCCCCSc1nc(NCCCCCCCCCCC)nc(NCCN(CC)CC)n1 [Compound D7S12N11]
  Absolute mRNA transfection efficiency in HEK293 cells: 4.4%

## CCCCCCCCCCCCCCSc1nc(NCCCCCCC)nc(NCCCN(C)C)n1 [Compound D6S14N7]
  Absolute mRNA transfection efficiency in HEK293 cells: 90.8%

## CCCCCCCCCCCCCCCCNc1nc(NCCN2CCCCC2)nc(SCCCCCC)n1 [Compound D4S6N16]
  Absolute mRNA transfection efficiency in HEK293 cells: 0.5%

## CCCCCCCCCCCCCCCCCCSc1nc(NCCCCCCCCCCCCCCC)nc(NCCN2CCCC2)n1 [Compound D3S18N15]
  Absolute mRNA transfection efficiency in HEK293 cells: 0.1%

## CCCCCCCCCCCCCCCCCCNc1nc(NCCCN(C)C)nc(SCCCCCCCCC)n1 [Compound D6S9N18]
  Absolute mRNA transfection efficiency in HEK293 cells: 44.8%

## CCCCCCCCCCCCCCCCCCNc1nc(NCC2CCN(C)CC2)nc(SCCCCCCCCCCCC)n1 [Compound D10S12N18]
  Absolute mRNA transfection efficiency in HEK293 cells: 4.1%

## CCCCCCCCCCCCCCCCSc1nc(NCCCCCCCCCCCCCCC)nc(NCCCN(C)C)n1 [Compound D6S16N15]
  Absolute mRNA transfection efficiency in HEK293 cells: 0.1%

## CCCCCCCCCCCCNc1nc(NCCN2CCCCC2)nc(SCCCCCCCCC)n1 [Compound D4S9N12]
  Absolute mRNA transfection efficiency in HEK293 cells: 9.5%

## CCCCCCCCCCSc1nc(NCCCCCCCCC)nc(NCCCN2CCN(C)CC2)n1 [Compound D9S10N9]
  Absolute mRNA transfection efficiency in HEK293 cells: 10.5%

## CCCCCCCCCCCCCCCCCCSc1nc(NCCN2CCCC2)nc(SCCCCCCC)n1 [Compound D3S7S18]
  Absolute mRNA transfection efficiency in HEK293 cells: 7.9%

## CCCCCCCCCCCCCCCCCCNc1nc(NCCN2CCN(C)CC2)nc(SCCCCCCCCCCCCCC)n1 [Compound D5S14N18]
  Absolute mRNA transfection efficiency in HEK293 cells: 0.6%

## CCCCCCCCCCCCCCSc1nc(NCCN(CC)CC)nc(SCCCCCC)n1 [Compound D7S6S14]
  Absolute mRNA transfection efficiency in HEK293 cells: 3.8%

## CCCCCCCCCCSc1nc(NCCN2CCOCC2)nc(SCCCCCC)n1 [Compound D2S6S10]
  Absolute mRNA transfection efficiency in HEK293 cells: 4.6%

## CCCCCCCCCCCCSc1nc(NCCN(C)C)nc(N(CCCCCCCCCCCC)CCCCCCCCCCCC)n1 [D1S12^2N12]
  Absolute mRNA transfection efficiency in HEK293 cells: 2.6%

## CCCCCCCCCNc1nc(NCCCN(C)C)nc(SCCCCCC)n1 [Compound D6S6N9]
  Absolute mRNA transfection efficiency in HEK293 cells: 0.3%

## CCCCCCCCCCCCCCCSc1nc(NCCCCCCCCCCC)nc(NCCCN2CCOCC2)n1 [Compound D8S15N11]
  Absolute mRNA transfection efficiency in HEK293 cells: 1.1%

## CCCCCCCCCCCCCCCCCCNc1nc(NCCN2CCOCC2)nc(SCCCCCCCC)n1 [Compound D2S8N18]
  Absolute mRNA transfection efficiency in HEK293 cells: 3.7%

## CCCCCCCCCCCCCCCNc1nc(NCC2CCN(C)CC2)nc(SCCCCCCCCC)n1 [Compound D10S9N15]
  Absolute mRNA transfection efficiency in HEK293 cells: 17.5%

## CCCCCCCCCCCCCCCCCCNc1nc(NCCN2CCCC2)nc(SCCCCCCCCCCCCCCCC)n1 [Compound D3S16N18]
  Absolute mRNA transfection efficiency in HEK293 cells: 14.1%

## CCCCCCCCCCCCCCCCCCNc1nc(NCCN(C)C)nc(SCCCCCCCCCC)n1 [Compound D1S10N18]
  Absolute mRNA transfection efficiency in HEK293 cells: 4.8%

## CCCCCCCCCCCCNc1nc(NCCN(C)C)nc(SCCCCCCCC)n1 [Compound D1S8N12]
  Absolute mRNA transfection efficiency in HEK293 cells: 17.9%

## CCCCCCCCNc1nc(NCCN2CCCCC2)nc(SCCCCCCCC)n1 [Compound D4S8N8]
  Absolute mRNA transfection efficiency in HEK293 cells: 0.6%

## CCCCCCSc1nc(NCCCN2CCN(C)CC2)nc(SCCCCCC)n1 [Compound D9S6S6]
  Absolute mRNA transfection efficiency in HEK293 cells: 8.0%

## CCCCCCCCCCCCCCSc1nc(NCCCCCCCCC)nc(NCCN2CCOCC2)n1 [Compound D2S14N9]
  Absolute mRNA transfection efficiency in HEK293 cells: 7.4%

## CCCCCCCCCCCCNc1nc(NCCN(CC)CC)nc(SCCCCCCC)n1 [Compound D7S7N12]
  Absolute mRNA transfection efficiency in HEK293 cells: 3.6%

## CCCCCCCCCCCCCCCSc1nc(NCCCCCCCC)nc(NCCCN(C)C)n1 [Compound D6S15N8]
  Absolute mRNA transfection efficiency in HEK293 cells: 6.9%

## CCCCCCCCCCCNc1nc(NCCN2CCN(C)CC2)nc(SCCCCCCCCCC)n1 [Compound D5S10N11]
  Absolute mRNA transfection efficiency in HEK293 cells: 11.0%

## CCCCCCCCCCCNc1nc(NCC2CCN(C)CC2)nc(SCCCCCCCCCC)n1 [Compound D10S10N11]
  Absolute mRNA transfection efficiency in HEK293 cells: 8.8%

## CCCCCCCCCCCCCCCCCCSc1nc(NCCCCCCCCC)nc(NCCN2CCOCC2)n1 [Compound D2S18N9]
  Absolute mRNA transfection efficiency in HEK293 cells: 0.4%

## CCCCCCCSc1nc(NCCCN(C)C)nc(SCCCCCC)n1 [Compound D6S6S7]
  Absolute mRNA transfection efficiency in HEK293 cells: 11.3%

## CCCCCCCCCCSc1nc(NCCN2CCCC2)nc(SCCCCCCCC)n1 [Compound D3S8S10]
  Absolute mRNA transfection efficiency in HEK293 cells: 12.0%

## CCCCCCNc1nc(NCCN(C)C)nc(SCCCCCC)n1 [Compound D1S6N6]
  Absolute mRNA transfection efficiency in HEK293 cells: 0.8%

## CCCCCCCNc1nc(NCC2CCN(C)CC2)nc(SCCCCCC)n1 [Compound D10S6N7]
  Absolute mRNA transfection efficiency in HEK293 cells: 5.5%

## CCCCCCCCCCCCN(CCCCCCCCCCCC)c1nc(NCCN(CC)CC)nc(SCCCCCCCCC)n1 [D7S9^2N12]
  Absolute mRNA transfection efficiency in HEK293 cells: 0.2%

## CCCCCCCCCCCSc1nc(NCCCN2CCOCC2)nc(SCCCCCCC)n1 [Compound D8S7S11]
  Absolute mRNA transfection efficiency in HEK293 cells: 23.1%

## CCCCCCCCCCCCCCCNc1nc(NCCN(CC)CC)nc(SCCCCCCCCC)n1 [Compound D7S9N15]
  Absolute mRNA transfection efficiency in HEK293 cells: 11.7%

## CCCCCCCCCCCCCCCCNc1nc(NCCCN2CCOCC2)nc(SCCCCCCCCCCC)n1 [Compound D8S11N16]
  Absolute mRNA transfection efficiency in HEK293 cells: 0.7%

## CCCCCCCCSc1nc(NCC2CCN(C)CC2)nc(SCCCCCCCC)n1 [Compound D10S8S8]
  Absolute mRNA transfection efficiency in HEK293 cells: 50.8%

## CCCCCCCCCCCCCCCCCCNc1nc(NCCCN2CCN(C)CC2)nc(SCCCCCCCCCCCCCCCCCC)n1 [Compound D9S18N18]
  Absolute mRNA transfection efficiency in HEK293 cells: 0.1%

## CCCCCCCCCCCSc1nc(NCCCN(C)C)nc(SCCCCCC)n1 [Compound D6S6S11]
  Absolute mRNA transfection efficiency in HEK293 cells: 15.7%

## CCCCCCCCCCCCCCCNc1nc(NCCN2CCCC2)nc(SCCCCCCCC)n1 [Compound D3S8N15]
  Absolute mRNA transfection efficiency in HEK293 cells: 21.8%

## CCCCCCCCCCCCNc1nc(NCCCN2CCOCC2)nc(SCCCCCCCCCCCC)n1 [Compound D8S12N12]
  Absolute mRNA transfection efficiency in HEK293 cells: 0.0%

## CCCCCCCCCCCCCCCNc1nc(NCCN2CCOCC2)nc(SCCCCCCCCCCCC)n1 [Compound D2S12N15]
  Absolute mRNA transfection efficiency in HEK293 cells: 0.0%

— patent publication US20230123334A1, “AMINO LIPID COMPOUND, PREPARATION METHOD THEREFOR, AND APPLICATION THEREOF” (SHENZHEN SHENXIN BIOTECHNOLOGY CO., LTD., priority 2020, published 2023)
